Each structure is given as a SMILES string.

The first data set is described as follows: Log P by HPLC on reversed phase columns (EEC directive 79/831 Annex V.A8). It counts as physicochemical.
Conditions: not given
As to the method:
Measurement of Log P values was performed according to EEC directive 79/831 Annex V.A8 by HPLC (High Performance Liquid Chromatography) on reversed phase columns with the following methods: • ^[a]
If more than one Log P value is available within the same method, all the values are given and separated by “+”.
Lambda-max-values were determined using UV-spectra from 200 nm to 400 nm and the peak values of the chromatographic signals.
Regarding `OC(Cc1cc(F)ncc1Cl)(Cn1cncn1)c1ccc(Oc2ccc(F)cc2F)cc1` (stereo not drawn) [Example I-54], the LogP was 3.02^[a].
Still for that read-out and setting: the figure for `OC(Cc1ccnc(Cl)c1)(Cn1cncn1)c1ccc(F)cc1` (stereo not drawn) [Example I-05] is 1.69^[a]; for `OC(Cc1cc(F)ncc1Cl)(Cn1cncn1)c1ccc(F)cc1` (stereo not drawn) [Example I-15] it is 2.12^[a].
Still for that read-out and setting: under `OC(Cc1cc(F)ncc1Cl)(Cn1cncn1)c1ccccc1` (stereo not drawn) [Example I-14] stands 2.02^[a]; under `COC(Cc1ccnc(Cl)c1F)(Cn1cncn1)c1ccc(F)cc1F` (stereo not drawn) [Example I-57], 2.47^[a].
With `OC(Cc1ccnc(Cl)c1F)(Cn1cncn1)c1ccc(Cl)cc1` (stereo not drawn) [Example I-10], the LogP was 2.23^[a].
`OC(Cc1cccnc1Cl)(Cn1cncn1)c1ccc(Cl)cc1F` (stereo not drawn) [Example I-29, 2-(4-chloro-2-fluoro-phenyl)-1-(2-chloro-3-pyridyl)-3-(1,2,4-triazol-1-yl)propan-2-ol]: the chromatographic logP worked out at 2.15.
On to `OC(Cc1ccnc(Cl)c1F)(Cn1cncn1)c1ccccc1Cl` (stereo not drawn) [Example I-07], for which the LogP is 2.27^[a].
On the same count and under the same terms, under `OC(Cc1cccnc1Cl)(Cn1cncn1)c1ccc(Cl)cc1` (stereo not drawn) [Example I-52] stands 1.99^[a].
The same measure, in the same setting: the figure for `OC(Cc1ccncc1Cl)(Cn1cncn1)c1ccc(Oc2ccc(F)cc2F)cc1` (stereo not drawn) [Example I-19] is 2.57^[a]; for `OC(Cc1ccncc1Cl)(Cn1cncn1)c1ccc(Oc2ccc(Cl)cc2)cc1` (stereo not drawn) [Example I-06] it is 2.90^[a].
Take `OC(Cc1cccnc1Cl)(Cn1cncn1)c1cccc(Cl)c1` (stereo not drawn) [Example I-17]: the LogP is 1.97^[a].
Still for that read-out and setting: the figure for `OC(Cc1ccnc(Cl)c1)(Cn1cncn1)c1ccc(Cl)cc1` (stereo not drawn) [Example I-47] is 1.96^[a]; for `OC(Cc1cc(Cl)ncc1F)(Cn1cncn1)c1ccc(Cl)cc1` (stereo not drawn) [Example I-40] it is 2.27^[a].

Staying with this data set, now noted: Table 1, formula (I); method [a]: LC-UV, acidic range, 0.1% formic acid in water and acetonitrile.
For the compound `OC(Cc1ccnc(Cl)c1)(Cn1cncn1)c1ccc(-c2ccccc2)cc1` (stereo not drawn) [Example I-39], the LogP was 2.57^[a].
The same measure, in the same setting: the figure for `OC(Cc1ccncc1F)(Cn1cncn1)c1ccc(-c2ccccc2)cc1` (stereo not drawn) [Example I-04] is 2.13^[a].

Staying with this data set, now noted: Table 2, epoxides of formula (XII); method [a]: LC-UV, acidic range, 0.1% formic acid in water and acetonitrile.
Take `Fc1ccc(C2(Cc3ccnc(Cl)c3)CO2)c(F)c1` (stereo not drawn) [XII-11]: the LogP was 2.93^[a].
Same read-out and setting: under `Fc1cnccc1CC1(c2ccc(Cl)cc2Cl)CO1` (stereo not drawn) [XII-3] stands 3.19^[a]; under `Fc1ccc(C2(Cc3c(Cl)cncc3Cl)CO2)c(F)c1` (racemic) [XII-55], 3.68^[a].
On the same count and under the same terms, under `Clc1ccc(C2(Cc3ccncc3Cl)CO2)cc1` (stereo not drawn) [XII-30] stands 3.15^[a].
With `Fc1cnc(Cl)cc1CC1(c2ccc(-c3ccccc3)cc2)CO1` (stereo not drawn) [XII-22], the LogP was 4.28^[a].
Same read-out and setting: under `Clc1ccc(C2(Cc3ccncc3Cl)CO2)c(Cl)c1` (stereo not drawn) [XII-31] stands 3.06^[a]; under `Clc1cc(CC2(c3ccc(-c4ccccc4)cc3)CO2)ccn1` (stereo not drawn) [XII-13], 3.89^[a].
Same read-out and setting: under `Fc1cnc(Cl)cc1CC1(c2ccc(Cl)cc2)CO1` (stereo not drawn) [XII-17] stands 3.56^[a].
Same read-out and setting: the figure for `Fc1cnccc1CC1(c2ccc(Oc3ccccc3)cc2)CO1` (stereo not drawn) [XII-7] is 3.37^[a]; for `Clc1ccc(C2(Cc3ccnc(Cl)c3)CO2)c(Cl)c1` (stereo not drawn) [XII-10] it is 3.85^[a].
Take `Clc1cc(CC2(c3ccc(Oc4ccccc4)cc3)CO2)ccn1` (stereo not drawn) [XII-9]: the LogP is 3.37^[a].
On the same count and under the same terms, the figure for `Clc1cnccc1CC1(c2ccc(Oc3ccccc3)cc2)CO1` (stereo not drawn) [XII-32] is 3.80^[a]; for `Fc1c(CC2(c3ccc(Cl)cc3Cl)CO2)ccnc1Cl` (racemic) [XII-46] it is 3.02^[a]; for `Fc1ccc(C2(Cc3ccnc(Cl)c3)CO2)cc1` (stereo not drawn) [XII-14] it is 2.76^[a].
Still for that read-out and setting: the figure for `Fc1ccc(C2(Cc3ccnc(Cl)c3F)CO2)cc1` (racemic) [XII-50] is 3.11^[a].
On the same count and under the same terms, the figure for `Fc1ccc(C2(Cc3ccncc3F)CO2)c(F)c1` (stereo not drawn) [XII-6] is 2.38^[a].
Consider `Clc1ccc(C2(Cc3ccnc(Cl)c3)CO2)cc1` (stereo not drawn) [XII-15], for which the LogP was 3.19^[a].

For the origin of these results see patent publication US20180339976A1, “NOVEL TRIAZOLE DERIVATIVES” (priority 2015, published 2018).
